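48-hour exposure; five concentrations; linearly interpolated endpoints. At the TGI there is no net growth.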
Experiments:
Experiment in all cases: NCI tumour cell line growth inhibition, 48 h
SNB-78 CNS = system: SNB-78 CNS
DLD-1 colon = system: DLD-1 colon
RXF-631 renal = system: RXF-631 renal
DMS 273 small cell lung = system: DMS 273 small cell lung
HOP-18 NSCLC = system: HOP-18 NSCLC
XF 498 CNS = system: XF 498 CNS
KM20L2 colon = system: KM20L2 colon
DMS 114 small cell lung = system: DMS 114 small cell lung
SN12K1 renal = system: SN12K1 renal
P388/ADR leukemia = system: P388/ADR leukemia
P388 leukemia = system: P388 leukemia

COc1cc(OC)c2c(O)cc(CC(C)O)cc2c1 (centres undefined) was tested, and the TGI (SNB-78 CNS) was over 100 µM, the TGI (DLD-1 colon) was over 100 µM and the TGI (RXF-631 renal) was over 100 µM. For the same compound, the TGI (DMS 273 small cell lung) was over 100 µM, the TGI (HOP-18 NSCLC) was over 100 µM and the TGI (XF 498 CNS) was over 100 µM. For the same compound, the TGI (KM20L2 colon) was over 100 µM and the TGI (DMS 114 small cell lung) was over 100 µM.
Compound CCCCOC(=O)CNC(=O)OCCCCC#CC#CCCCCOC(=O)NCC(=O)OCCCC has a TGI (SNB-78 CNS) of over 100 µM, a TGI (DLD-1 colon) of over 100 µM and a TGI (DMS 273 small cell lung) of over 100 µM. The TGI (HOP-18 NSCLC) was over 100 µM, the TGI (XF 498 CNS) was over 100 µM and the TGI (KM20L2 colon) was over 100 µM. It also gave a TGI (DMS 114 small cell lung) of over 100 µM.
With COc1cccc2cc(C)c(C(=O)c3ccccc3)nc12 the TGI (SNB-78 CNS) was over 100 µM, the TGI (DLD-1 colon) was over 100 µM and the TGI (RXF-631 renal) was over 100 µM. For the same compound, the TGI (DMS 273 small cell lung) was over 100 µM, the TGI (HOP-18 NSCLC) was over 100 µM and the TGI (XF 498 CNS) was over 100 µM. It also gave a TGI (KM20L2 colon) of over 100 µM and a TGI (DMS 114 small cell lung) of over 100 µM.
Work on CC(=O)C1CC(C)=CCC12C(=O)Nc1ccccc12 (centres undefined) yielded a TGI (DLD-1 colon) of over 100 µM, a TGI (RXF-631 renal) of over 100 µM and a TGI (DMS 273 small cell lung) of over 100 µM. It also gave a TGI (HOP-18 NSCLC) of over 100 µM, a TGI (XF 498 CNS) of over 100 µM and a TGI (KM20L2 colon) of over 100 µM. It also gave a TGI (DMS 114 small cell lung) of over 100 µM.
COC1=CC(=O)c2ccccc2C1(CCC=C(C)C)C1=NC(C)(C)CO1 (centres undefined) showed a TGI (DLD-1 colon) of over 100 µM, a TGI (DMS 273 small cell lung) of over 100 µM and a TGI (HOP-18 NSCLC) of over 100 µM. The TGI (KM20L2 colon) was over 100 µM.
COc1ccc2c3c1OC1CC(O)C=CC31CCN(C)C2 (centres undefined) was tested, and the TGI (SNB-78 CNS) was over 117 µM, the TGI (SN12K1 renal) was over 150 µM and the TGI (DLD-1 colon) was over 54.1 µM. It also gave a TGI (DMS 273 small cell lung) of over 150 µM, a TGI (P388/ADR leukemia) of over 150 µM and a TGI (HOP-18 NSCLC) of over 150 µM. For the same compound, the TGI (XF 498 CNS) was over 150 µM, the TGI (KM20L2 colon) was over 150 µM and the TGI (DMS 114 small cell lung) was over 150 µM. The TGI (P388 leukemia) was over 150 µM.
Compound CCOC(=O)/C(O)=C1\C(=O)N(C)C(=O)C1c1ccc(OC)c(OC)c1 (centres undefined) has a TGI (SNB-78 CNS) of over 100 µM, a TGI (SN12K1 renal) of over 100 µM and a TGI (DLD-1 colon) of over 100 µM. It also gave a TGI (DMS 273 small cell lung) of over 100 µM, a TGI (P388/ADR leukemia) of over 31.6 µM and a TGI (HOP-18 NSCLC) of over 100 µM. The TGI (XF 498 CNS) was over 100 µM, the TGI (KM20L2 colon) was over 100 µM and the TGI (DMS 114 small cell lung) was over 100 µM. For the same compound, the TGI (P388 leukemia) was over 100 µM.
With COc1ccc2[nH]c3c(c2c1)CCN(C)CC3 the TGI (SNB-78 CNS) was over 100 µM, the TGI (DLD-1 colon) was over 100 µM and the TGI (RXF-631 renal) was over 100 µM. It also gave a TGI (DMS 273 small cell lung) of over 100 µM, a TGI (HOP-18 NSCLC) of over 100 µM and a TGI (XF 498 CNS) of over 100 µM. The TGI (KM20L2 colon) was over 100 µM.
With CCCCCc1cc(OC(=O)c2c(O)cc(OC)cc2CCCCC)cc(O)c1C(=O)O the TGI (SNB-78 CNS) was 57.6 µM, the TGI (DLD-1 colon) was 26.7 µM and the TGI (DMS 273 small cell lung) was 32.4 µM. It also gave a TGI (XF 498 CNS) of 32.5 µM, a TGI (KM20L2 colon) of 33.3 µM and a TGI (DMS 114 small cell lung) of 33.9 µM.
Compound O=C1C(Br)=CC2([N+](=O)[O-])CCNc3c(O)c4c5c(c3C2=C1Br)=NCCC=5C=N4 (centres undefined) has a TGI (SNB-78 CNS) of 5.48 µM, a TGI (SN12K1 renal) of 14.7 µM and a TGI (DLD-1 colon) of 1.49 µM. For the same compound, the TGI (DMS 273 small cell lung) was 6.92 µM, the TGI (P388/ADR leukemia) was 2.35 µM and the TGI (HOP-18 NSCLC) was 27.5 µM. For the same compound, the TGI (XF 498 CNS) was 5.48 µM, the TGI (KM20L2 colon) was 10.4 µM and the TGI (DMS 114 small cell lung) was 0.545 µM. For the same compound, the TGI (P388 leukemia) was 1.14 µM.
Compound CCCC/C=C1\CCC(CN2CCCCC2)C1=O (centres undefined) has a TGI (SNB-78 CNS) of 27.4 µM, a TGI (DLD-1 colon) of 3.25 µM and a TGI (RXF-631 renal) of over 65.2 µM. The TGI (HOP-18 NSCLC) was 16.8 µM, the TGI (XF 498 CNS) was 6.58 µM and the TGI (KM20L2 colon) was 32.9 µM. For the same compound, the TGI (DMS 114 small cell lung) was 16.1 µM.

From PubChem BioAssay (NCI)
